According to patent publication US20220079993A1, “NON-NATURALLY OCCURRING THERMOGENIC ADIPOCYTES, METHODS OF MAKING, AND METHODS OF USE THEREOF” (University of Georgia Research Foundation, Inc., priority 2019, published 2022):
Structures can show the parent of a compound that is named as a salt. Where two headings read alike, the source gives them in different places.

Assays:
[1] = tested on: beige adipocytes; assay: Lipolysis validation assays of primary hits at three concentrations; format: cell-based, human; design: % of Control (1) / % of Control (2) / % of Control (3) / % of Control (4): unit of the concentration uncertain; conditions: for activity at 2.2 µM / activity at 6.7 µM / activity at 20 µM / activity at 2200 µM: Homo sapiens, Adipocyte, 24 h; for activity at 2.2 µM: Conc. 2.2 µM; for activity at 6.7 µM: Conc. 6.7 µM; for activity at 20 µM: Conc. 20 µM; for activity at 2200 µM: Conc. 2.2 mM
Protocol: ADSCs were seeded at 5000 cell/cm^2 in 12-well plates, grown for 5 days and then induced to differentiate into GC for 20 days. Prior to the assay, cells were washed in DPBS twice and then incubated with DMEM with 2% fatty-acid free BSA (Santa Crus, sc-500949) and Triascin C (5 μM). Cells were treated with forskolin (20 μM) for indicated time periods and supernatant samples were collected. Lipolysis assay was performed with free glycerol reagent (Sigma, F6428-40ML), according to manufacturer instructions.
Lipolysis assays were performed after 24 hours of drug treatment by measuring free glycerol released in the 384-well format, using the procedure described above. Absorbance for each compound was normalized to untreated control samples for each plate and calculated as a percent of the control. Cut-offs for “activating” and “inhibiting” compounds were set at 2-fold. Validation assays were performed for select compounds at a range of concentration doses.
Next, lipolysis assays were performed for all 111 compounds identified in the primary screen at three different concentrations, of which twenty-four were selected for further analysis based on their newness and/or reproducibility.

[2] = tested on: UCP1; assay: Secondary screen, UCP1 transcript levels by qRT-PCR; format: cell-based, human; conditions: secondary screen of primary hits
Text: FIG. 8A is a scheme used for high-throughput screening (HTS). FIG. 8B is a scatter-plot of glycerol release for each compound assayed (n=3889) in an HTS screen. Data are shown as the percentage of glycerol released compared to untreated beige adipocytes (% of control). FIG. 8C is a computational analysis of preliminary hits identified in the HTS using BiNChE. FIG. 8D is a plot showing the results of a secondary hit validation of primary compounds performed by evaluating levels of UCP1 transcript by qRT-PCR. Unstimulated beige cells, selected adrenergic agonists, and potential new non-adrenergic beige fat activators identified in the primary screen are shown. Transcript levels were normalized to UCP1 levels in ADSCs, n=3 for each technical 20 replicate. *P<0.0.05, **P<0.01, ***P<0.005. FIGS. 8E and 8F are bar graphs showing secondary screening of known thermogenic activators. Transcript levels of UCP1 were assayed in unstimulated ADSCs and ADSC-derived beige adipocytes and following treatment with forskolin (FSK, 20 μM), isoproterenol (1, 10 μM) (8E) and Mirabegron (1, 10 and 25 μM) (8F). Transcript levels were determined by qRT-PCR. n=3 for each independent replicate. Data are mean+/−standard deviation. *P<0.0.05, **P<0.01.
Cells were washed with DPBS, lysed directly on the plate and used for RNA isolation with the E.Z.N.A Total RNA Kit (Omega, R6834-02) according to manufacturer instructions. RNA quantitation was performed with the Biotek Synergy 2 plate reader and cDNA was synthesized using 1 ug of RNA with the iScript cDNA Synthesis Kit (Bio-Rad, 1708841). The qRT-PCR was performed on a ViiA7 Real-Time PCR System (ThermoFisher) using a TaqMan Universal PCR Master Mix (ThermoFisher, 4324020) according to manufacturer instructions with the following TaqMan primer/probe sets (UCP1, Hs01084772_m1), DIO2, Hs00988260_ml, 18S rRNA, Hs03928985_g1). Each assay was performed in triplicate and normalized to 18S rRNA and graphed as mean+/−standard deviation.
To determine if hits identified in the first-round screen activated the thermogenic program, UCP1 transcript levels were used as a readout. This secondary screen incorporated adrenergic agonists, such as Mirabegron, isoproterenol and phenylephrine, and eighteen additional compounds with no reported function in thermogenic regulation (FIG. 8D, 8E, 8F). 18/25 (72%) of the lipolysis-activating compounds identified in the primary screen also activate the thermogenic program through UCP1. Twelve of these compounds have no reported adrenergic agonist activity and could potentially operate through different signaling mechanisms (FIG. 8D and Table 9).

Structure (SMILES) | % of Control (1) ([1]; Conc. 2.2 (unit uncertain)) | % of Control (2) ([1]; Conc. 2.2 (unit uncertain)) | % of Control (3) ([1]; Conc. 2.2 (unit uncertain)) | % of Control (4) ([1]; Conc. 2.2 (unit uncertain)) | % of Control (1) ([1]; Conc. 6.7 (unit uncertain)) | % of Control (2) ([1]; Conc. 6.7 (unit uncertain)) | % of Control (3) ([1]; Conc. 6.7 (unit uncertain)) | % of Control (4) ([1]; Conc. 6.7 (unit uncertain)) | % of Control (1) ([1]; Conc. 20 (unit uncertain)) | % of Control (2) ([1]; Conc. 20 (unit uncertain)) | % of Control (3) ([1]; Conc. 20 (unit uncertain)) | % of Control (4) ([1]; Conc. 20 (unit uncertain)) | Activation of the thermogenic program (UCP1 transcript), in words [2] | activity at 2.2 µM ([1]; read-out: % of Control (2)) | activity at 2.2 µM ([1]; read-out: % of Control (4)) | activity at 6.7 µM ([1]; read-out: % of Control (1)) | activity at 6.7 µM ([1]; read-out: % of Control (2)) | activity at 6.7 µM ([1]; read-out: % of Control (3)) | activity at 6.7 µM ([1]; read-out: % of Control (4)) | activity at 20 µM ([1]; read-out: % of Control (1)) | also measured
CC1(C)C(=O)N(CCN2CCC(C(=O)c3ccc(F)cc3)CC2)c2ccccc21 [LY-310, 762] | 179.4 % of Control | 180.24 % of Control | 180.44 % of Control | 143.79 % of Control | 179.76 % of Control | 199.88 % of Control | 222.09 % of Control | 289.77 % of Control | 264.29 % of Control | 223.06 % of Control | 225.27 % of Control | 201.38 % of Control | activators in both rounds of screening |  |  |  |  |  |  |  | 
COc1ccc(-c2cc3c(C)nc(N)nc3n([C@H]3CC[C@H](OCCO)CC3)c2=O)cn1 [PF-04691502] | 171.55 % of Control | 138.35 % of Control | 232.86 % of Control | 105.98 % of Control | 257.98 % of Control | 216.59 % of Control | 225.05 % of Control | 155.98 % of Control | 304.52 % of Control | 224.71 % of Control | 171.76 % of Control | 302.07 % of Control | activators in both rounds of screening |  |  |  |  |  |  |  | 
Cc1ccc([N+](=O)[O-])cc1S(=O)(=O)N(C)/N=C/c1cnc2ccc(Br)cn12 [PIK-75] | 197.74 % of Control | 134.71 % of Control | 183.08 % of Control | 136.9 % of Control | 280.95 % of Control | 197.53 % of Control | 165.05 % of Control | 207.93 % of Control | 158.45 % of Control | 244.82 % of Control | 198.79 % of Control | 233.79 % of Control | activators in both rounds of screening |  |  |  |  |  |  |  | 
CC[C@@H]1C(=O)OC[C@@H]1Cc1cncn1C [Pilocarpine nitrate] |  |  |  |  |  |  |  |  |  |  |  |  | activators in both rounds of screening | 135% | 89.8% | 220% | 260% | 167% | 84.2% | 200% | activity at 20 µM ([1]; read-out: % of Control (2)): 290%; activity at 20 µM ([1]; read-out: % of Control (3)): 230%; activity at 20 µM ([1]; read-out: % of Control (4)): 181%; activity at 2200 µM ([1]; read-out: % of Control (1)): 109%; activity at 2200 µM ([1]; read-out: % of Control (3)): 176%
Cc1cc(C)c(/C=C2\C(=O)Nc3ccccc32)[nH]1 [SU 5416] |  |  |  |  |  |  |  |  |  |  |  |  | activators in both rounds of screening | 379% | 232% | 349% | 366% | 251% | 238% | 283% | activity at 20 µM ([1]; read-out: % of Control (2)): 267%; activity at 20 µM ([1]; read-out: % of Control (3)): 233%; activity at 20 µM ([1]; read-out: % of Control (4)): 246%; activity at 2200 µM ([1]; read-out: % of Control (1)): 281%; activity at 2200 µM ([1]; read-out: % of Control (3)): 214%
COc1cc2c(cc1OC)-c1c/c(=N\c3c(C)cc(C)cc3C)n(C)c(=O)n1CC2 [Trequinsin HCl] |  |  |  |  |  |  |  |  |  |  |  |  | efficacy in beige cell activation | 251% | 244% | 271% | 264% | 232% | 215% | 284% | activity at 20 µM ([1]; read-out: % of Control (2)): 292%; activity at 20 µM ([1]; read-out: % of Control (3)): 256%; activity at 20 µM ([1]; read-out: % of Control (4)): 248%; activity at 2200 µM ([1]; read-out: % of Control (1)): 240%; activity at 2200 µM ([1]; read-out: % of Control (3)): 188%
